Measurements published in US8106055B2, “Substituted amide compounds” (Gruenenthal GmbH, priority 2007, dated 2012).

Assays:
human μ opiate receptor = molecular target: T1, human μ opiate receptor (Homo sapiens, UniProt P35372); test: Affinity for the human μ opiate receptor ([3H]-naloxone displacement, CHO-K1 receptor membrane preparation, SPA); type: binding; conditions: test concentration of 1 μM; read-out: μ (binding on the μ opioid receptor, % inhibition)
T1 construct: purchased PerkinElmer Life Sciences, Zaventem, Belgium RB-HOM; host or cells: CHO-K1 cells (membrane preparation)
In short: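 CHO-K1 membranes expressing human μ receptor incubated 90 min at room temperature with 1 nmol/l [3H]-naloxone and WGA-SPA beads in 50 mmol/l Tris-HCl, 0.06% BSA; 100 μmol/l naloxone defines non-specific binding. Values are % inhibition of specific binding at 1 μM; IC50 converted to Ki by Cheng-Prusoff.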

[1] = molecular target: T2, serotonin (5-HT) reuptake (Rattus norvegicus, UniProt P31652); test: Inhibition of serotonin (5HT) reuptake in synaptosomes from rat brain; type: biochemical; conditions: test concentration of 10 μM; read-out: 5-HT (inhibition of reuptake of serotonin, % inhibition)
T2 construct: synaptosomes are freshly isolated from areas of the rat brain; from tissue; host or cells: rat brain synaptosomes (P2 fraction)
In short: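 Freshly isolated rat brain synaptosomes (P2 fraction) used for 5-HT reuptake. Test compound at 10 μM, activity given as % inhibition.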

T1 sequence (P35372 whole entry): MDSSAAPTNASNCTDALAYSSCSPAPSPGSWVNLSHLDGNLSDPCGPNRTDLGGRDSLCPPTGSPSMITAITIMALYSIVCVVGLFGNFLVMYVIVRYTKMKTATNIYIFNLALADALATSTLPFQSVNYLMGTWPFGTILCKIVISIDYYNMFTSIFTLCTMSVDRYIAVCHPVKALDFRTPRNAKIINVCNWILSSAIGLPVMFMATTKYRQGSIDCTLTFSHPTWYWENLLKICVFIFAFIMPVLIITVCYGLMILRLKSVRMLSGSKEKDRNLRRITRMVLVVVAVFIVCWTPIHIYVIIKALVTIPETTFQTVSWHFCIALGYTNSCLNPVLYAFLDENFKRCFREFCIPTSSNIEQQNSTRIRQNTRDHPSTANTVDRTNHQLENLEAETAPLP
T2 sequence (P31652 whole entry): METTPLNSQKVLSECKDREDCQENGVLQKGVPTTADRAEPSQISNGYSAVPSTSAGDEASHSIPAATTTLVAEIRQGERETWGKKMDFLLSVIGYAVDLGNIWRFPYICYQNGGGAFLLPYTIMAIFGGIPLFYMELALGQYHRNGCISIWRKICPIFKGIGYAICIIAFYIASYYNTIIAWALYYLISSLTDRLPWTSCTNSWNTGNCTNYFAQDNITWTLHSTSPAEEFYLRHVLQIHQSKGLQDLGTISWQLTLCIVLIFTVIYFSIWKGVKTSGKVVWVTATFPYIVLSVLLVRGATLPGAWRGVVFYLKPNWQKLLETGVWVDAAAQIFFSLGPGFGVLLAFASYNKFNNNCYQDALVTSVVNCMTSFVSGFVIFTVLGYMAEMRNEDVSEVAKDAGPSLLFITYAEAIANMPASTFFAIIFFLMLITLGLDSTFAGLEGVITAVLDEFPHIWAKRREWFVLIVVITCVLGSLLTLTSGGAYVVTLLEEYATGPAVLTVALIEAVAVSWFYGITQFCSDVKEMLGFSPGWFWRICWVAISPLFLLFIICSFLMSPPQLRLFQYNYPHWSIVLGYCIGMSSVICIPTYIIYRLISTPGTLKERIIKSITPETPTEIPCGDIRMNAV

Row | Compound | inhibition at 1 µM (human μ opiate receptor) | inhibition at 10 µM [1]
1 | CN(C)C(c1cccs1)C1CCC(CNC(=O)COC2CCN(S(=O)(=O)c3ccccc3)C2)CC1 (centres unmarked) [Example 36, N-((4-((dimethylamino)(thiophen-2-yl)methyl)cyclohexyl)methyl)-2-(1-(phenylsulfonyl)pyrrolidin-3-yloxy)acetamide] | 96% | 102%
2 | CCN(CCOCC(=O)NC1CCC(C(c2cccs2)N(C)C)CC1)S(=O)(=O)c1c(C)cc(OC)c(C)c1C (centres unmarked) [Example 59, N-(4-((dimethylamino)(thiophen-2-yl)methyl)cyclohexyl)-2-(2-(N-ethyl-4-methoxy-2,3,6-trimethylphenylsulfonamido)ethoxy)acetamide] | 95% | 92%
3 | COc1ccc(S(=O)(=O)N2CCCCC2CCOCC(=O)NC2CCC(C(c3cccc(F)c3)N(C)C)CC2)cc1 (centres unmarked) [Example 62, N-(4-((dimethylamino)(3-fluorophenyl)methyl)cyclohexyl)-2-(2-(1-(4-methoxyphenylsulfonyl)piperidin-2-yl)ethoxy)acetamide] | 95% | 96%
4 | CN(C)C(c1ccccc1)C1CCC(CNC(=O)COCCN(C)S(=O)(=O)c2cccc(C(F)(F)F)c2)CC1 (centres unmarked) [Example 91, N-((4-((dimethylamino)(phenyl)methyl)cyclohexyl)methyl)-2-(2-(N-methyl-3-(trifluoromethyl)phenylsulfonamido)ethoxy)acetamide] | 91% | 93%
5 | Cc1ccc(S(=O)(=O)N(C)CCOCC(=O)NCC2CCC(C(c3cccs3)N(C)C)CC2)cc1 (centres unmarked) [Example 4, N-((4-((dimethylamino)(thiophen-2-yl)methyl)cyclohexyl)methyl)-2-(2-(N,4-dimethylphenylsulfonamido)ethoxy)acetamide] | 99% | 92%
6 | COc1ccc(S(=O)(=O)N2CCCCC2CCOCC(=O)NCCC2CCC(C(c3cccs3)N(C)C)CC2)cc1 (centres unmarked) [Example 46, N-(2-(4-((dimethylamino)(thiophen-2-yl)methyl)cyclohexyl)ethyl)-2-(2-(1-(4-methoxyphenylsulfonyl)piperidin-2-yl)ethoxy)acetamide] | 96% | 96%
7 | COc1ccc(S(=O)(=O)N2CCC(OCC(=O)NCCC3CCC(C(c4cccs4)N(C)C)CC3)C2)cc1OC (centres unmarked) [Example 94, 2-(1-(3,4-dimethoxyphenylsulfonyl)pyrrolidin-3-yloxy)-N-(2-(4-((dimethylamino)(thiophen-2-yl)methyl)cyclohexyl)ethyl)acetamide] | 93% | 88%
8 | COc1cc(C)c(S(=O)(=O)N2CCC(OCC(=O)NC3CCC(C(c4cccs4)N(C)C)CC3)C2)c(C)c1C (centres unmarked) [Example 43, N-(4-((dimethylamino)(thiophen-2-yl)methyl)cyclohexyl)-2-(1-(4-methoxy-2,3,6-trimethylphenylsulfonyl)pyrrolidin-3-yloxy)acetamide] | 96% | 90%
9 | COc1cc(C)c(S(=O)(=O)N(C)CCOCC(=O)NCCC2CCC(C(c3cccs3)N(C)C)CC2)c(C)c1 (centres unmarked) [Example 84, N-(2-(4-((dimethylamino)(thiophen-2-yl)methyl)cyclohexyl)ethyl)-2-(2-(4-methoxy-N,2,6-trimethylphenylsulfonamido)ethoxy)acetamide] | 95% | 92%
10 | COc1ccc(S(=O)(=O)N2CCCCC2COCC(=O)NCC2CCC(C(c3ccccc3)N(C)C)CC2)cc1 (centres unmarked) [Example 88, N-((4-((dimethylamino)(phenyl)methyl)cyclohexyl)methyl)-2-((1-(4-methoxyphenylsulfonyl)piperidin-2-yl)methoxy)acetamide] | 94% | 95%
11 | CN(C)C(c1cccs1)C1CCC(NC(=O)COC2CCCN(S(=O)(=O)c3ccccc3)C2)CC1 (centres unmarked) [Example 42, N-(4-((dimethylamino)(thiophen-2-yl)methyl)cyclohexyl)-2-(1-(phenylsulfonyl)piperidin-3-yloxy)acetamide] | 96% | 91%
12 | CN(C)C(c1ccccc1)C1CCC(CNC(=O)COCCN(C)S(=O)(=O)c2ccc(OC(F)(F)F)cc2)CC1 (centres unmarked) [Example 53, N-((4-((dimethylamino)(phenyl)methyl)cyclohexyl)methyl)-2-(2-(N-methyl-4-(trifluoromethoxy)phenylsulfonamido)ethoxy)acetamide] | 95% | 92%
13 | COc1cc(C)c(S(=O)(=O)N(C)CCOCC(=O)NCCC2CCC(C(c3cccs3)N(C)C)CC2)c(C)c1C (centres unmarked) [Example 52, N-(2-(4-((dimethylamino)(thiophen-2-yl)methyl)cyclohexyl)ethyl)-2-(2-(4-methoxy-N,2,3,6-tetramethylphenylsulfonamido)ethoxy)acetamide] | 95% | 91%
14 | COc1cc(C)c(S(=O)(=O)N2CCC(CCOCC(=O)NC3CCC(C(c4cccs4)N(C)C)CC3)CC2)c(C)c1C (centres unmarked) [Example 5, N-(4-((dimethylamino)(thiophen-2-yl)methyl)cyclohexyl)-2-(2-(1-(4-methoxy-2,3,6-trimethylphenylsulfonyl)piperidin-4-yl)ethoxy)acetamide] | 99% | 87%
15 | CN(C)C(c1cccs1)C1CCC(CNC(=O)COCCN(C)S(=O)(=O)c2ccc(F)cc2)CC1 (centres unmarked) [Example 56, N-((4-((dimethylamino)(thiophen-2-yl)methyl)cyclohexyl)methyl)-2-(2-(4-fluoro-N-methylphenylsulfonamido)ethoxy)acetamide] | 95% | 100%
16 | COc1cc(C)c(S(=O)(=O)N2CCC(OCC(=O)NCC3CCC(C(c4cccs4)N(C)C)CC3)C2)c(C)c1 (centres unmarked) [Example 86, N-((4-((dimethylamino)(thiophen-2-yl)methyl)cyclohexyl)methyl)-2-(1-(4-methoxy-2,6-dimethylphenylsulfonyl)pyrrolidin-3-yloxy)acetamide] | 95% | 96%
17 | CN(C)C(c1cccs1)C1CCC(CCNC(=O)COCCN(C)S(=O)(=O)c2ccc(F)cc2)CC1 (centres unmarked) [Example 85, N-(2-(4-((dimethylamino)(thiophen-2-yl)methyl)cyclohexyl)ethyl)-2-(2-(4-fluoro-N-methylphenylsulfonamido)ethoxy)acetamide] | 92% | 98%
18 | CN(C)C(c1ccccc1)C1CCC(NC(=O)COC2CCCCC2N(C)S(=O)(=O)c2ccc(Cl)c(Cl)c2)CC1 (centres unmarked) [Example 39, 2-(2-(3,4-dichloro-N-methylphenylsulfonamido)cyclohexyloxy)-N-(4-((dimethylamino)(phenyl)methyl)cyclohexyl)acetamide] | 96% | 91%
19 | CN(C)C(c1ccccc1)C1CCC(CNC(=O)COC2CCN(S(=O)(=O)c3ccc(Cl)cc3Cl)C2)CC1 (centres unmarked) [Example 67, 2-(1-(2,4-dichlorophenylsulfonyl)pyrrolidin-3-yloxy)-N-((4-((dimethylamino)(phenyl)methyl)cyclohexyl)methyl)acetamide] | 96% | 87%
20 | CN(C)C(c1ccccc1)C1CCC(NC(=O)COCCN(C)S(=O)(=O)c2c(Cl)cc(Cl)cc2Cl)CC1 (centres unmarked) [Example 34, N-(4-((dimethylamino)(phenyl)methyl)cyclohexyl)-2-(2-(2,4,6-trichloro-N-methylphenylsulfonamido)ethoxy)acetamide] | 96% | 79%
21 | CN(C)C(c1cccc(F)c1)C1CCC(CNC(=O)COCCN(C)S(=O)(=O)c2c(Cl)cccc2Cl)CC1 (centres unmarked) [Example 72, 2-(2-(2,6-dichloro-N-methylphenylsulfonamido)ethoxy)-N-((4-((dimethylamino)(3-fluorophenyl)methyl)cyclohexyl)methyl)acetamide] | 92% | 84%
22 | COc1cc(C)c(S(=O)(=O)N2CCC(OCC(=O)NCCC3CCC(C(c4cccs4)N(C)C)CC3)C2)c(C)c1C (centres unmarked) [Example 74, N-(2-(4-((dimethylamino)(thiophen-2-yl)methyl)cyclohexyl)ethyl)-2-(1-(4-methoxy-2,3,6-trimethylphenylsulfonyl)pyrrolidin-3-yloxy)acetamide] | 90% | 98%
23 | COc1ccc(S(=O)(=O)N2CCCCC2COCC(=O)NCC2CCC(C(c3cccs3)N(C)C)CC2)c(OC)c1 (centres unmarked) [Example 49, 2-((1-(2,4-dimethoxyphenylsulfonyl)piperidin-2-yl)methoxy)-N-((4-((dimethylamino)(thiophen-2-yl)methyl)cyclohexyl)methyl)acetamide] | 96% | 86%
24 | CN(C)C(c1ccccc1)C1CCC(CNC(=O)COC2CCCCC2N(C)S(=O)(=O)c2ccc(Cl)c(Cl)c2)CC1 (centres unmarked) [Example 78, 2-(2-(3,4-dichloro-N-methylphenylsulfonamido)cyclohexyloxy)-N-((4-((dimethylamino)(phenyl)methyl)cyclohexyl)methyl)acetamide] | 95% | 86%
25 | CN(C)C(c1cccs1)C1CCC(CNC(=O)COCCN(C)S(=O)(=O)c2cccc(C(F)(F)F)c2)CC1 (centres unmarked) [Example 92, N-((4-((dimethylamino)(thiophen-2-yl)methyl)cyclohexyl)methyl)-2-(2-(N-methyl-3-(trifluoromethyl)phenylsulfonamido)ethoxy)acetamide] | 94% | 86%
